Results as given in patent publication US12583858B2 (Genentech, Inc., priority 2015, dated 2026).
pEC50: −log10 of the molar value.

Target: T1, TDO2 (Homo sapiens, UniProt P48775)
T1 construct: decreased levels of NFK in SW48 cells (high TDO expressing cells)
Assay: TDO2 cell assay (NFK GreenScreen, SW48 cells)
Type: cell-based
Details: SW48 cells (high TDO expressing), 200 uM tryptophan, 24 hours; Table 3; read-out: TDO2 Cell Fluor EC50

T1 sequence (P48775 whole entry): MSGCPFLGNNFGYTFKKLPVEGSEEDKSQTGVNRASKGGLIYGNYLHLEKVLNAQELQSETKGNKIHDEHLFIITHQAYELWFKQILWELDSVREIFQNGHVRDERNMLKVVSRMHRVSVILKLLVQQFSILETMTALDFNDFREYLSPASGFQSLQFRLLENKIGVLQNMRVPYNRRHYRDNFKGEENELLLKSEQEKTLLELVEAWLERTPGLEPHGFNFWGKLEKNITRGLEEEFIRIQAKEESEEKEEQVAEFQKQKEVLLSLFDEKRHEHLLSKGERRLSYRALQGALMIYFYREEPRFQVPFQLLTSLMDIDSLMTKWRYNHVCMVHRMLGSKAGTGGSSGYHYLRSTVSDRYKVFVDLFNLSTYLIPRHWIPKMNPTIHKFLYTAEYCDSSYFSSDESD

SMILES	pEC50
CS(=O)(=O)c1ccc2c(c1)[C@@H](O)[C@H]([C@H]1c3ccccc3-c3cncn31)CC2 (single isomer, unassigned) [Example 142a]	7.43
CS(=O)(=O)c1ccc2c(c1)[C@@H](O)[C@H]([C@H]1c3ccccc3-c3cncn31)CC2 (single isomer, unassigned) [Example 142b]	5.23
CC(O)(c1ncc[nH]1)C1c2ccccc2-c2cncn21 (single isomer, unassigned) [Example 143a]	< 4.60
CC(O)(c1ncc[nH]1)C1c2ccccc2-c2cncn21 (single isomer, unassigned) [Example 143b]	< 4.60
CC(O)(c1ncc[nH]1)C1c2ccccc2-c2cncn21 (single isomer, unassigned) [Example 143c]	4.80
CC(O)(c1ncc[nH]1)C1c2ccccc2-c2cncn21 (single isomer, unassigned) [Example 143d]	< 4.60
OC1(C2c3ccccc3-c3cncn32)CCCOC1 (single isomer, unassigned) [Example 144a]	6.00
OC1(C2c3ccccc3-c3cncn32)CCCOC1 (single isomer, unassigned) [Example 144b]	< 4.60
OC1(C2c3ccccc3-c3cncn32)CCCOC1 (single isomer, unassigned) [Example 144c]	5.68
OC1(C2c3ccccc3-c3cncn32)CCCOC1 (single isomer, unassigned) [Example 144d]	< 4.60
N#CC1CCC(O)(C2c3ccccc3-c3cncn32)CC1 (single isomer, unassigned) [Example 145a]	5.38
N#CC1CCC(O)(C2c3ccccc3-c3cncn32)CC1 (single isomer, unassigned) [Example 145b]	5.96
N#CC1CCC(O)(C2c3ccccc3-c3cncn32)CC1 (single isomer, unassigned) [Example 145c]	4.72
N#CC1CCC(O)(C2c3ccccc3-c3cncn32)CC1 (single isomer, unassigned) [Example 145d]	< 4.60
OC1c2nncn2CCC1C1c2ccccc2-c2cncn21 (single isomer, unassigned) [Example 146-1a]	< 4.60
OC1c2nncn2CCC1C1c2ccccc2-c2cncn21 (single isomer, unassigned) [Example 146-1b]	5.13
O[C@@H]1c2nncn2CC[C@H]1[C@H]1c2ccccc2-c2cncn21 (single isomer, unassigned) [Example 146-1c]	< 4.60
OC1c2nncn2CCC1C1c2ccccc2-c2cncn21 (single isomer, unassigned) [Example 146-1d]	4.92
OC1c2cnnn2CCC1C1c2ccccc2-c2cncn21 (single isomer, unassigned) [Example 146a]	6.48
OC1c2cnnn2CCC1C1c2ccccc2-c2cncn21 (single isomer, unassigned) [Example 146b]	< 4.60
O[C@@H](C1CCCCC1)[C@@H]1c2ccccc2-c2cncn21 (single isomer, unassigned) [Example 148c]	6.06
O[C@@H](C1CCCCC1)[C@@H]1c2ccccc2-c2cncn21 (single isomer, unassigned) [Example 148d]	< 4.60
NC(=O)c1nc2c(s1)CCC(C1c3ccccc3-c3cncn31)C2O (single isomer, unassigned) [Example 149a]	6.72

SMILES	pEC50
NC(=O)c1nc2c(s1)CCC(C1c3ccccc3-c3cncn31)C2O (single isomer, unassigned) [Example 149c]	6.82
NC(=O)c1nc2c(s1)CCC(C1c3ccccc3-c3cncn31)C2O (single isomer, unassigned) [Example 149d]	5.02
NC(=O)c1nc2c(s1)CCC(C1c3ccccc3-c3cncn31)C2O (single isomer, unassigned) [Example 149e]	5.85
NC(=O)c1nc2c(s1)CCC(C1c3ccccc3-c3cncn31)C2O (single isomer, unassigned) [Example 149f]	< 4.60
NC(=O)c1nc2c(s1)CCC(C1c3ccccc3-c3cncn31)C2O (single isomer, unassigned) [Example 149g]	4.62
NC(=O)c1nc2c(s1)CCC(C1c3ccccc3-c3cncn31)C2O (single isomer, unassigned) [Example 149h]	4.62
OC1CC(CF)(CF)C1C1c2ccccc2-c2cncn21 (single isomer, unassigned) [Example 150b]	5.68
OC1CC(CF)(CF)C1C1c2ccccc2-c2cncn21 (single isomer, unassigned) [Example 150d]	4.74
OC1CC(CF)(CF)C1C1c2ccccc2-c2cncn21 (single isomer, unassigned) [Example 150e]	7.28
OC1CC(CF)(CF)C1C1c2ccccc2-c2cncn21 (single isomer, unassigned) [Example 150f]	4.96
O[C@@H]1c2c(F)cnn2CC[C@@H]1[C@@H]1c2ccccc2-c2cncn21 (single isomer, unassigned) [Example 151b]	< 4.60
OC1c2c(F)cnn2CCC1C1c2ccccc2-c2cncn21 (single isomer, unassigned) [Example 151c]	< 4.60
O[C@@H]1c2c(F)cnn2CC[C@H]1[C@H]1c2ccccc2-c2cncn21 (single isomer, unassigned) [Example 151d]	6.89
OC(c1ccncc1)C1c2ccccc2-c2cncn21 (single isomer, unassigned) [Example 152a]	4.85
OC(c1ccncc1)C1c2ccccc2-c2cncn21 (single isomer, unassigned) [Example 152b]	< 4.60
OC(c1ccncc1)C1c2ccccc2-c2cncn21 (single isomer, unassigned) [Example 152c]	< 4.60
OC(c1ccncc1)C1c2ccccc2-c2cncn21 (single isomer, unassigned) [Example 152d]	< 4.60
N#CC1(C(O)C2c3ccccc3-c3cncn32)CC1 (single isomer, unassigned) [Example 153a]	6.21
N#CC1(C(O)C2c3ccccc3-c3cncn32)CC1 (single isomer, unassigned) [Example 153b]	4.96
OC(C1c2ccccc2-c2cncn21)C1(F)CC1 (single isomer, unassigned) [Example 154a]	6.89
OC(C1c2ccccc2-c2cncn21)C1(F)CC1 (single isomer, unassigned) [Example 154b]	< 4.60
OC(C1c2ccccc2-c2cncn21)C1(F)CC1 (single isomer, unassigned) [Example 154c]	5.27
OC(C1c2ccccc2-c2cncn21)C1(F)CC1 (single isomer, unassigned) [Example 154d]	4.89

SMILES	pEC50
CC(C)(C(N)=O)C(O)C1c2ccccc2-c2cncn21 (single isomer, unassigned) [Example 155b]	< 4.60
CC(C)(C(N)=O)C(O)C1c2ccccc2-c2cncn21 (single isomer, unassigned) [Example 155c]	4.68
CC(C)(C(N)=O)C(O)C1c2ccccc2-c2cncn21 (single isomer, unassigned) [Example 155d]	< 4.60
N#Cc1cnn2c1C(O)C(C1c3ccccc3-c3cncn31)CC2 (single isomer, unassigned) [Example 156a]	< 4.60
N#Cc1cnn2c1C(O)C(C1c3ccccc3-c3cncn31)CC2 (single isomer, unassigned) [Example 156b]	6.62
N#Cc1cnn2c1[C@@H](O)[C@@H]([C@H]1c3ccccc3-c3cncn31)CC2 (single isomer, unassigned) [Example 156c]	4.72
N#Cc1cnn2c1[C@@H](O)[C@@H]([C@H]1c3ccccc3-c3cncn31)CC2 (single isomer, unassigned) [Example 156d]	< 4.60
N#Cc1cnn2c1C(O)C(C1c3ccccc3-c3cncn31)CC2 (single isomer, unassigned) [Example 156e]	6.60
N#Cc1cnn2c1[C@@H](O)[C@H]([C@H]1c3ccccc3-c3cncn31)CC2 (single isomer, unassigned) [Example 156f]	< 4.60
OC1c2[nH]ncc2CCC1C1c2ccccc2-c2cncn21 (single isomer, unassigned) [Example 157a]	6.43
O[C@@H]1c2[nH]ncc2CC[C@H]1[C@@H]1c2ccccc2-c2cncn21 (single isomer, unassigned) [Example 157b]	4.66
OC1c2[nH]ncc2CCC1C1c2ccccc2-c2cncn21 (single isomer, unassigned) [Example 157c]	4.85
OC1c2[nH]ncc2CCC1C1c2ccccc2-c2cncn21 (single isomer, unassigned) [Example 157e]	7.02
OC1c2[nH]ncc2CCC1C1c2ccccc2-c2cncn21 (single isomer, unassigned) [Example 157f]	< 4.60
OC1c2[nH]ncc2CCC1C1c2ccccc2-c2cncn21 (single isomer, unassigned) [Example 157h]	6.12
Cc1cnn2c1C(O)C(C1c3ccccc3-c3cncn31)CC2 (single isomer, unassigned) [Example 159a]	6.57
Cc1cnn2c1C(O)C(C1c3ccccc3-c3cncn31)CC2 (single isomer, unassigned) [Example 159b]	4.85
Cc1cnn2c1C(O)C(C1c3ccccc3-c3cncn31)CC2 (single isomer, unassigned) [Example 159c]	6.60
Cc1cnn2c1C(O)C(C1c3ccccc3-c3cncn31)CC2 (single isomer, unassigned) [Example 159d]	5.43
O[C@@H]1c2c(Cl)cnn2CC[C@@H]1[C@H]1c2ccccc2-c2cncn21 (single isomer, unassigned) [Example 160c]	4.64
O[C@@H]1c2c(Cl)cnn2CC[C@@H]1[C@H]1c2ccccc2-c2cncn21 (single isomer, unassigned) [Example 160d]	5.22
Nc1cc2n(n1)CCC(C1c3ccccc3-c3cncn31)C2O (single isomer, unassigned) [Example 161c]	6.00
Nc1cc2n(n1)CCC(C1c3ccccc3-c3cncn31)C2O (single isomer, unassigned) [Example 161e]	< 4.60
